For one assay, the system named is DS3 DNA fragment. The assay can be described thus: DNA footprinting, DS3 DNA fragment. The following applies: DS3 DNA sequence. Type of assay: binding. The procedure: The DNA sequence selectivity profile of the molecules was investigated using a modification of the previously established DNA footprinting assay. Following an overnight incubation of the ligand-DNA complexes, the mixture was mixed with strand separation buffer containing 10 mM EDTA, 10 mM NaOH, 0.1% bromophenol blue, 80% formamide and incubated at 100° C. for 3 min. The mixture was then immediately cooled on ice and run on an 8% denaturing gel.
The preparation of the DS3 DNA fragment (FIG. 5) and the “D” DNA fragment (FIG. 6) has been previously described. Briefly, the sequence which had been cloned into the BamHI site of pUC18 was obtained by cutting with HindIII and EcoRI. Radiolabelled DNA fragments were prepared by filling in the 3′-end of the HindIII site with [α-^32P]dATP using Klenow DNA polymerase (exo-).
The radiolabelled DNA fragment was separated from the remainder of the plasmid DNA on a 6% non-denaturing polyacrylamide gel. The gel (20 cm long, 0.3 mm thick) was run at 400 V in 1×TBE running buffer for about 1-2 h, until the bromophenol blue had run most of the way down the gel. The glass plates were separated and the position of the labelled DNA fragment was established by short (1 min) exposure to an X-ray film. The relevant band was then cut from the gel and the radiolabelled DNA eluted by adding 300 μL 10 mM Tris-HCl, pH 7.5 containing 0.1 mM EDTA and gently agitating overnight at room temperature. The eluted DNA was finally precipitated with ethanol and re-suspended in a suitable volume of 10 mM Tris-HCl, pH 7.5 containing 0.1 mM EDTA buffer so as to give at least 10 counts per second/μL on a hand-held Geiger counter. […]
Footprinting reactions were performed as previously described using the DNA fragments DS3, which contains tracts of AT/GC bases; and using the “D” DNA fragments which represents a random DNA sequence. […] After gel purification, the radiolabelled DNA was dissolved in 10 mM Tris-HCl pH 7.5 containing 0.1 mM EDTA, at a concentration of about 10 c.p.s per μL as determined on a hand held Geiger counter. […]

The subject of assay [1] is 5′-[…]-3′ (poly GC) DNA duplex. The assay can be described thus: FRET DNA melting, poly GC duplex. Type of assay: binding. The settings on record: FRET melting, FIG. 2 bottom panel (poly GC duplex). As for the experimental part: FRET DNA melting studies were undertaken on 15 and 16 using two fluorescently labelled sequences. The sequences (FIG. 1) were designed to represent poly AT and poly GC sequences.
The short duplexes used in this FRET study are relatively unstable in the duplex form with a melting temperature below 30° C. so that, in the absence of ligand, a large part of the melting occurs below the starting temperature of the experiment. However, it can be observed that 15 stabilizes the duplex form, producing increases in melting temperature with ΔTm values of […] for 5′-AAAAAAAGAAAAAATIT-3′ (FIG. 2, top panel), and ˜25° C. (FIG. 2, bottom panel).
Oligonucleotides were obtained from ATDbio (Southampton, UK) in lyophilised form. […]
The reaction mixture was comprised of 4 μL of 250 mM phosphate buffer (final concentration of 50 mM), 4 μL flourophor and 4 μL quencher molecule of the appropriate oligonucleotide for a final concentration of 0.2 μM, 4 μL 5 M sodium chloride (final concentration of 1 M NaCl), and 4 μL of distilled H2O. […] This mixture was analysed without prior annealing.
Fluorescence melting profiles were measured using a Roche LightCycler using a total reaction volume of 20 μL. […] Annealing steps and melting steps were all recorded and changes in fluorescence were measured at 520 nm. […]

The test system of another assay is A431 (Skin). In words: In vitro cytotoxicity, MTT assay, A431. Type of assay: cell-based. The settings on record: Homo sapiens, A-431; A431 (Skin), MTT, 72 hour incubation; read-out: Cytotoxicity. As for the experimental part: (§1) The in vitro cytotoxicity of a selection of compounds were evaluated in a panel of cell lines using the standard MTT assay for a 72 hour incubation period (Table 2). Free payloads produced cytotoxicities in the nanomolar range.
(§2) Tumor cell lines were maintained in RPMI1640 medium supplemented with 10% heat-inactivated fetal bovine serum, 2 mM L-glutamine and 1 mM sodium pyruvate. 1800 cells per well were seeded in a volume of 180 μl in a 96-well flat bottom polystyrene plate. The cells were allowed to adhere overnight at 37° C. in a CO2 incubator. Ligands were initially formulated in DMSO, and stocks stored at −80° C. They were then further formulated at lox concentration in RPMI1640 medium. 20 ul of diluted samples were added into each treatment well. On each plate, blank wells with no cells, and untreated wells containing cells, were included. Plates were then cultured at 37° C. in a CO2 incubator for 72 hrs. Cytotoxicity was evaluated using a tetrazolium salt-based assay, the MTT assay. After 72 hours, the supernatant was removed from each well and 200 μl of a sterile filtered 500 μg/ml MTT solution in water added to each well. The plates were then incubated at 37° C. in a CO2 incubator for 4 hrs. The supernatant was then removed and the formazan crystals formed solubilized by adding 150 μl of DMSO to each well. The plate was then read on a plate reader at 540 nm, and percentage cell survival calculated as follows: ((mean absorbance treated wells at concentration x−mean absorbance blank wells)+(mean absorbance untreated wells at concentration x−mean absorbance blank wells))×100. Data were plotted as concentration in nM vs. % cell survival in Microsoft Excel, and IC50 values (concentration where cell survival is reduced by a half) were determined from the graph.
Background: Tetrazolium dyes change colour on reduction, which living cells bring about.

A further assay deals with REH (ALL). The assay can be described thus: In vitro cytotoxicity, MTT assay, REH. Type of assay: cell-based. The settings on record: REH (ALL), MTT, 72 hour incubation; read-out: Cytotoxicity. The procedure:
as §1, §2

The subject of the next assay is U138-MG (Glioblastoma). In words: In vitro cytotoxicity, MTT assay, U138-MG. Type of assay: cell-based. The following applies: Homo sapiens; U138-MG (Glioblastoma), MTT, 72 hour incubation; read-out: Cytotoxicity. As for the experimental part: as §1, §2
The subject of another assay is EMRSA 16. The assay can be described thus: MIC assay, EMRSA 16. Type of assay: cell-based. The following applies: Staphylococcus aureus. As for the experimental part: (§3) The antimicrobial activity of a selection of compounds were evaluated in a Gram-negative, Gram-positive and multi-resistant bacteria using the standard minimum inhibitory concentration (MIC) assay for an overnight (16-20 hour) incubation period. Commercially marketed antibiotics (Table 3) were used as positive controls during the study.
(§4) Mueller-Hinton broth (MH Broth) (Sigma-Aldrich; Millipore, cat. no. 70192) and Mueller-Hinton agar (MHA) (Sigma-Aldrich; Millipore, cat. no. 70191) were prepared as per manufacturer's instructions and sterilized by autoclaving. Approximately 20 mL of MHA was poured onto 15×100 mm petri dishes and allowed to set. Agar plates were then stored in plastic bags in an inverted position at 4° C.
(§5) Bacterial strains were provided in the form of a glycerol stock, stored at −80° C. For the purpose of preparation of bacterial suspension, appropriate strains were removed from −80° C. storage onto dry ice and not allowed to freeze-thaw.
(§6) Stock solutions of 16, 45 and 73 were provided in DMSO at 1.28 mg/mL concentration. From this stock solution, working solutions of the desired concentration were prepared by diluting with MHB.
(§7) MIC assay methodology was adapted from previously published work.
(§8) Bacterial isolate to be tested was streaked onto a nutrient-rich MH agar plate and incubated overnight at 37° C. in order to obtain single colonies.
(§9) After overnight incubation, single colonies with the same morphological appearance were chosen from the agar plate. These were touched using a sterile loop and transferred into a tube containing 10 mL of a MH broth. They were then mixed using vortex mixer and incubated at 35-37° C. in a shaker at 200 r.p.m. overnight.
(§10) Determination of OD600 and cfu/mL count OD600 (the optical density of a sample measured at a wavelength of 600 nm) of the overnight culture was measured. Because of the loss of linearity at OD600 values […], it was necessary to dilute the sample until the OD600 value was below 1.0. For all tested bacteria, a dilution of 1:10 was appropriate (100 μL in 900 μL broth).
(§11) The overnight culture was then diluted 1:100 using sterile tubes and MH broth (dilution: 10^−2). Serial dilution was then performed six times until dilution of 10^−8 was reached. 100 μL of dilutions 10^−7 and 10^−8 were plated onto MH agar plates in triplicate using a sterile cell spreader and incubated overnight at 37° C.
(§12) After overnight incubation, colonies on plates were counted and cfu per mL calculated. The following formula was applied: […]
(§13) After overnight incubation, the OD600 was measured and the overnight culture was diluted accordingly to obtain 1×10^8 cfu/mL. […]
(§14) The 96-well plates were read using a SpectraMax plate reader at an absorbance of 600 nm. […]

Assay [2] has as its system Klebsiella pneumoniae KP4631. The assay can be described thus: MIC assay, Klebsiella pneumoniae KP4631. Type of assay: cell-based. The following applies: Klebsiella pneumoniae, KP4631. The procedure: as §3, §4, §5, §6, §7, §8, §9, §10, §11, §12, §13, §14
The subject of another assay is E. coli K12. In words: MIC assay, E. coli K12. Type of assay: cell-based. The settings on record: Escherichia coli, K12, E. coli K12 (Gram-negative), overnight (16-20 hour) incubation. The procedure:
as §3, §4, §5, §6, §7, §8, §9, §10, §11, §12
For the generation of overnight cultures to be used for preparation of the bacterial suspension for MIC tests, a single colony of bacteria was selected using a sterile loop and a sterile tube with MH broth was inoculated followed by overnight incubation at […] in a shaker set to 200 r.p.m.
After overnight incubation, the OD600 was measured and the overnight culture was diluted accordingly to obtain 1×10^8 cfu/mL.
Free payload dilutions were prepared as per Table 4.
96-well sterile microtiter plates were used for MIC assay. The plate was filled with the respective free payload or positive control antibiotic concentrations in triplicate. 100 μL of broth was pipetted in the sterility control well (SC, column 12) and 50 μL in the growth control well (GC, column 11).
1×10^8 cfu/mL bacterial suspension was diluted 1:100 and 50 μL added to each well apart from SC. […]
as §14

pIC50: −log10 of the molar value. Converted amounts (≈) assume the structure as drawn.

By MIC is commonly meant the lowest concentration that inhibits growth of the organism.

Turning to `COc1cc2c(cc1OCCCC(=O)Nc1cc(C(=O)Nc3ccc(-c4cc(C(=O)Nc5ccc(N)cc5)n(C)c4)cc3)n(C)c1)N=C[C@@H]1CCCCN1C2=O` [Compound 15, (S)—N-(4-aminophenyl)-4-(4-(4-(4-((2-methoxy-12-oxo-6a,7,8,9,10,12-hexahydrobenzo[e]pyrido[1,2-a][1,4]diazepin-3-yl)oxy)butan-amido)-1-methyl-1H-pyrrole-2-carboxamido)phenyl)-1-methyl-1H-pyrrole-2-carboxamide], the “DNA binding pattern (footprint)” value with DS3 DNA fragment was “bind to tracts of DNA where a GC base is present”. The “ΔTm (increase in melting temperature)” value in assay [1] was approximately 25 °C.

With `COc1cc2c(cc1OCCCC(=O)Nc1cc(C(=O)Nc3ccc(-c4cc(C(=O)Nc5ccncc5)n(C)c4)cc3)n(C)c1)NC[C@@H]1CCCCN1C2=O` [Compound 73, (S)-4-(4-((2-Methoxy-12-oxo-5,6,6a,7,8,9,10,12-octahydrobenzo[e]pyrido-[1,2-a][1,4]diazepin-3-yl)oxy)butanamido)-1-methyl-N-(4-(1-methyl-5-(pyridin-4-ylcarbamoyl)-1H-pyrrol-3-yl)phenyl)-1H-pyrrole-2-carboxamide], the pIC50 was 6.84 in the assay with A431 (Skin), 7.43 in the assay on REH (ALL) and 6.52 in the assay with U138-MG (Glioblastoma). Besides, the figures for the MIC (in the assay with EMRSA 16; in assay [2]; in the assay on E. coli K12) were 0.5 µg/mL (≈ 0.671 µM), 4 to 8 µg/mL (≈ 5.37 to 10.7 µM) and 2 µg/mL (≈ 2.69 µM), respectively.

The values are drawn from patent US20210371413A1, “POLYCYCLIC AMIDES AS CYTOTOXIC AGENTS” (FEMTOGENIX LIMITED, priority 2018, published 2021).
